Results on eleven molecules are retold here after US20260130369A1, “MARINE ALGICIDES” (Mote Marine Laboratory, Inc., priority 2022, published 2026).

The subject of experiment [1] is K. brevis cells. Kind of experiment: Large-scale mesocosm experiment, efficacy of algicide treatment (red tide cell counts). Format: cell-based, Karenia brevis. The conditions noted are these: 15 or 25 ppm particles; 1400 L tanks; 1 million cells/L; first (15 minute) sampling period. How it is done:
A large-scale mesocosm experiment was conducted to evaluate the efficacy of algicide treatment and marine organism toxicity. In each of four 1400 L exposure tanks containing K. brevis cells at a red tide concentration of 1 million cells/L, potassium ricinoleate particles were added to the tanks at levels of 15 or 25 ppm. At 15 minutes after addition of the algicidal agent to each tank, water samples were collected for red tide cell counts.
Marine organism toxicity was evaluated by adding grass shrimp or Gulf killifish to the tanks along with the red tide cells and 15 or 25 ppm of the algicidal compounds. The red tide cells were quickly killed as before. After 18 and 24 hours, all shrimp remained alive. After 18 hours all fish were alive, but significant fish mortality was observed after 24 hours. The fish mortality was determined to be due to insufficient tank water circulation and oxygenation, and repeating the fish experiment with adequate circulation and oxygenation should eliminate or at least reduce the observed fish mortality.

The test system of experiment [2] is K. brevis. The experiment is described as follows: K. brevis mortality test of individual pure compounds against red tide cultures. Format: cell-based, Karenia brevis. The conditions noted are these: 100% mortality of K. brevis within 2 hours after administration to a water sample containing K. brevis. The procedure:
Shown below in Table 1 are one saturated fatty acid (viz., palmitic acid) and nine exemplary algicidal unsaturated fatty acids, along with their omega nomenclature (viz., number of carbon atoms, number of double bonds, number of carbon atoms from the carboxylic acid end to the first carbon in a double bond) and the required dosage in ppm to obtain 100% mortality of K. brevis, within 2 hours after administration to a water sample containing K. brevis, according to embodiments of the present disclosure.
The relative toxic effects shown in Table 1 were determined by obtaining individual pure compounds and testing them against red tide cultures of K. brevis. The compounds in Table 1 may also be tested as salts or soaps, and in water or non-methanolic solvents such as ethanol, acetone, acetic acid, dimethyl sulfoxide (DMSO) or other polar or non-polar solvent. […] In embodiments, the observed mortality may for example be at least 25%, at least 50%, at least 75%, at least 90% or as much as 100% in a desired time frame (e.g., within 2 hours, within 4 hours, within 8 hours, within 24 hours, or within 2, 3 or 4 days following application of the algicidal compound. In some embodiments, 100% death of red tide organisms may be achieved within 30 minutes of application within a target area. Additionally, extracts of macro algae common in environments suitable for K. brevis were tested to see how the mixture of fatty acids in those extracts would perform as algicidal agents. Use of a single compound instead of a mixture may be preferable under many common circumstances. However, Ulva latuca and Gracilaria tikvahiae contain mixtures of fatty acids and may be used as salts or soaps or in non-methanolic solutions to control K. brevis red tide blooms, according to embodiments of the present disclosure.
To measure K. brevis mortality in a liquid, the concentration of K. brevis is measured before any algaecides are added. An algaecide is then added, and the concentration of live K. brevis measured at intervals (e.g. 1, 2, 5, 10, 20, and 30 minutes). This may also be performed in serial stages. For example, if the mortality rate of K. brevis at 30 minutes is 100%, the experiment may be repeated and the concentration of K. brevis measured at a lesser time point, such as after 20 minutes. If the mortality rate of K. brevis is still 100%, the experiment may be repeated again with the concentration measured at a lesser time point, such as after 10 minutes. The experiment may be repeated as many times as necessary to measure how long it takes for an algaecide to reach 100% mortality rate of K. brevis. Any suitable time periods may be used to measure the concentration of K. brevis.
A variety of techniques may be used to measure K. brevis concentrations. In some embodiments, staining techniques are used. Staining may be performed with Lugol's Iodine Solution stain, which will become fixed to and stain the K. brevis so that it may be visualized. Other stains may be used, such as Invitrogen™ SYTOX™ Green from Thermo Fisher Scientific, which will penetrate compromised membranes (a feature characteristic of dead cells) of K. brevis and stain them. Fluorescein Diacetate may also be used, where live cells convert the fluorescein diacetate to […] which fluoresces and may be measured. Additionally, 4′,6-diamidino-2-phenylindole (DAPI) may also be used to stain nucleic acids that are inside or outside of cells. In addition to staining methods, the concentration of K. brevis may also be measured by other imaging techniques such as manual count, microscopy, fluorometry, flow cytometry, or other possible staining or counting techniques. FIG. 3 depicts one method of measuring K. brevis concentration using Invitrogen™ SYTOX™ Green.

Turning to `CCCCCC[C@@H](O)C/C=C\CCCCCCCC(=O)[O-].[K+]` [potassium ricinoleate], the “red tide cell mortality (no live cells under microscopic examination)” value in experiment [1] is given as “complete red tide cell mortality”.
As for `CC/C=C\C/C=C\C/C=C\C/C=C\C/C=C\C/C=C\CCC(=O)O` [Docosahexanoic Acid], the “Dosage (PPM) for 100% Mortality in under 2 hrs” value (“Dosage (PPM) for 100% Mortality” below) in experiment [2] is recorded as less than 2.5 PPM.
Turning to `CCCCC/C=C\C/C=C\C/C=C\C/C=C\CCCC(=O)O` [Arachidonic Acid], the “Dosage (PPM) for 100% Mortality” value in experiment [2] was 1.5 PPM.
For `CC/C=C\C/C=C\C/C=C\C/C=C\CCC(=O)O` [Hexadecatetraenoic Acid], the “Dosage (PPM) for 100% Mortality” value in experiment [2] is listed as greater than 1 PPM.
Turning to `CC/C=C\C/C=C\C/C=C\CCCCCCCC(=O)O` [Alpha-linolenic Acid], the “Dosage (PPM) for 100% Mortality” value in experiment [2] was 3 PPM.
The same measure, in the same setting: the same measure for `CCCCCCCCCCCCCCCC(=O)O` [Palmitic Acid, reference compound]: greater than 10 PPM; for `CCCCCC/C=C\CCCCCCCCCC(=O)O` [Vacennic Acid]: greater than 6 PPM; for `CC/C=C\C/C=C\C/C=C\C/C=C\C/C=C\CCCC(=O)O` [Eicosapentaenoic Acid]: less than 2 PPM.
As for `CCCCC/C=C\C/C=C\C/C=C\C/C=C\CCCCCC(=O)O` [Adrenic Acid], the “Dosage (PPM) for 100% Mortality” value in experiment [2] is reported as less than 50 PPM.
Still for that read-out and setting: the figure for `CC/C=C\C/C=C\C/C=C\C/C=C\CCCCC(=O)O` [Stearidonic Acid] is greater than 2 PPM; for `CCCCCC/C=C\CCCCCCCC(=O)O` [Palmitoleic Acid] it is 3 PPM.
